From US20230139445A1, “BACTERIAL CELLS WITH IMPROVED TOLERANCE TO DIACIDS” (priority 2016, published 2023)

Assays:
[1] = system: Escherichia coli K-12 MG1655 evolved isolates and knockout mutants; experiment: Biolector growth screening of evolved isolates and reconstructed (knockout) mutants in glutaric or adipic acid; assay type: cell-based
Description: Biological triplicate cultures of each strain were grown to saturation overnight in 96 well deepwell plates containing 300 μL M9+1% glucose. The next day, cells were diluted 1:10 in deionized water in a clear 96 well plate and the OD600 was measured on a BioTek plate reader. 48 well FlowerPlates containing a final volume of 1.4 mL of M9+1/o glucose (plus relevant chemical) were inoculated to OD600 0.03 (with plate reader pathlength, 200 μL volume) with the overnight culture and sealed with Breathseal film. Light backscatter intensity was monitored in a Biolector microbioreactor system at 37° C. with 1000 rpm shaking.
Each re-sequenced isolate was characterized using the Biolector system for growth at the screening concentration of chemical (47.5 g/L glutaric acid or 50 g/L adipic acid) in biological triplicates.

[2] = system: Escherichia coli K-12 MG1655 knockout mutants; experiment: Growth Profiler growth screening of K-12 MG1655 single, double and triple knockout mutants in glutaric or adipic acid; assay type: cell-based
[3] = strain GLUT1-3, M9 + 47.5 g/L glutaric acid (neutralized with sodium hydroxide)
[4] = strain GLUT1-3, M9 + 47.5 g/L glutaric acid (neutralized), knockout experiment (Table 14)
[5] = strain GLUT1-9, M9 + 47.5 g/L glutaric acid (neutralized with sodium hydroxide)
[6] = strain GLUT1-10, M9 + 47.5 g/L glutaric acid (neutralized with sodium hydroxide)
[7] = strain GLUT1-10, M9 + 47.5 g/L glutaric acid (neutralized), knockout experiment (Table 14)
[8] = strain GLUT2-1, M9 + 47.5 g/L glutaric acid (neutralized with sodium hydroxide)
[9] = strain GLUT2-9, M9 + 47.5 g/L glutaric acid (neutralized with sodium hydroxide)
[10] = strain GLUT2-10, M9 + 47.5 g/L glutaric acid (neutralized with sodium hydroxide)
[11] = strain GLUT3-5, M9 + 47.5 g/L glutaric acid (neutralized with sodium hydroxide)
[12] = strain GLUT3-7, M9 + 47.5 g/L glutaric acid (neutralized with sodium hydroxide)
[13] = strain GLUT3-9, M9 + 47.5 g/L glutaric acid (neutralized with sodium hydroxide)
[14] = strain GLUT4-1, M9 + 47.5 g/L glutaric acid (neutralized with sodium hydroxide)
[15] = strain GLUT4-1, M9 + 47.5 g/L glutaric acid (neutralized), knockout experiment (Table 14)
[16] = strain GLUT4-4, M9 + 47.5 g/L glutaric acid (neutralized with sodium hydroxide)
[17] = strain GLUT4-10, M9 + 47.5 g/L glutaric acid (neutralized with sodium hydroxide)
[18] = strain GLUT5-4, M9 + 47.5 g/L glutaric acid (neutralized with sodium hydroxide)
[19] = strain GLUT5-5, M9 + 47.5 g/L glutaric acid (neutralized with sodium hydroxide)
[20] = strain GLUT6-4, M9 + 47.5 g/L glutaric acid (neutralized with sodium hydroxide)
[21] = strain GLUT6-5, M9 + 47.5 g/L glutaric acid (neutralized with sodium hydroxide)
[22] = strain GLUT6-10, M9 + 47.5 g/L glutaric acid (neutralized with sodium hydroxide)
[23] = strain GLUT7-2, M9 + 47.5 g/L glutaric acid (neutralized with sodium hydroxide)
[24] = strain GLUT7-6, M9 + 47.5 g/L glutaric acid (neutralized with sodium hydroxide)
[25] = strain GLUT7-7, M9 + 47.5 g/L glutaric acid (neutralized with sodium hydroxide)
[26] = strain GLUT8-5, M9 + 47.5 g/L glutaric acid (neutralized with sodium hydroxide)
[27] = strain GLUT8-6, M9 + 47.5 g/L glutaric acid (neutralized with sodium hydroxide)
[28] = strain GLUT8-6, M9 + 47.5 g/L glutaric acid (neutralized), knockout experiment (Table 14)
[29] = strain GLUT8-9, M9 + 47.5 g/L glutaric acid (neutralized with sodium hydroxide)
[30] = strain MG1655, M9 + 47.5 g/L glutaric acid (neutralized with sodium hydroxide)
[31] = strain MG1655, M9 + 47.5 g/L glutaric acid (neutralized), knockout experiment (Table 14)
[32] = strain MG1655 kgtP::kan, M9 + 47.5 g/L glutaric acid (neutralized)
[33] = strain MG1655 proV::kan, M9 + 47.5 g/L glutaric acid (neutralized)
[34] = strain MG1655 ybjL::kan, M9 + 47.5 g/L glutaric acid (neutralized)
[35] = strain MG1655 ΔkgtP proV::kan, M9 + 47.5 g/L glutaric acid (neutralized)
[36] = strain MG1655 ΔkgtP sspA::kan, M9 + 47.5 g/L glutaric acid (neutralized)
[37] = strain MG1655 ΔkgtP ybjL::kan, M9 + 47.5 g/L glutaric acid (neutralized)
[38] = strain MG1655 ΔkgtP ΔproV ybjL::kan, M9 + 47.5 g/L glutaric acid (neutralized)
[39] = strain MG1655, M9 + 23.8 g/L glutarate (neutralized)
[40] = strain MG1655, M9 + 47.5 g/L glutarate (neutralized)
[41] = strain MG1655 kgtP::kan, M9 + 23.8 g/L glutarate (neutralized)
[42] = strain MG1655 kgtP::kan, M9 + 47.5 g/L glutarate (neutralized)
[43] = strain MG1655 ΔkgtP nagC::kan, M9 + 23.8 g/L glutarate (neutralized)
[44] = strain MG1655 ΔkgtP nagC::kan, M9 + 47.5 g/L glutarate (neutralized)
[45] = strain MG1655 ΔkgtP proV::kan, M9 + 23.8 g/L glutarate (neutralized)
[46] = strain MG1655 ΔkgtP rnb::kan, M9 + 23.8 g/L glutarate (neutralized)
[47] = strain MG1655 ΔkgtP rnb::kan, M9 + 47.5 g/L glutarate (neutralized)
[48] = strain MG1655 ΔkgtP sspA::kan, M9 + 23.8 g/L glutarate (neutralized)
[49] = strain MG1655 ΔkgtP ΔproV nagC::kan, M9 + 23.8 g/L glutarate (neutralized)
[50] = strain MG1655 ΔkgtP ΔproV nagC::kan, M9 + 47.5 g/L glutarate (neutralized)

For `O=C(O)CCCC(=O)O` [glutaric acid], the “mean growth rate μ” value [1, 3] was 0.304 h⁻¹, the “mean lag time tlag” value [1, 3] was 5.1 h and the “mean growth rate μ” value [1, 4] was 0.278 h⁻¹. The “mean lag time tlag” value [1, 4] was 4.6 h, the “mean growth rate μ” value [1, 5] was 0.319 h⁻¹ and the “mean lag time tlag” value [1, 5] was 6.4 h. The “mean growth rate μ” value [1, 6] was 0.458 h⁻¹, the “mean lag time tlag” value [1, 6] was 11.3 h and the “mean growth rate μ” value [1, 7] was 0.442 h⁻¹. The “mean lag time tlag” value [1, 7] was 10.8 h, the “mean growth rate μ” value [1, 8] was 0.276 h⁻¹ and the “mean lag time tlag” value [1, 8] was 6.8 h. The “mean growth rate μ” value [1, 9] was 0.298 h⁻¹, the “mean lag time tlag” value [1, 9] was 6.5 h and the “mean growth rate μ” value [1, 10] was 0.378 h⁻¹. For the same molecule, the “mean lag time tlag” value [1, 10] was 6.5 h, the “mean growth rate μ” value [1, 11] was 0.284 h⁻¹ and the “mean lag time tlag” value [1, 11] was 5.6 h. The “mean growth rate μ” value [1, 12] was 0.277 h⁻¹, the “mean lag time tlag” value [1, 12] was 5.6 h and the “mean growth rate μ” value [1, 13] was 0.324 h⁻¹. For the same molecule, the “mean lag time tlag” value [1, 13] was 8.3 h, the “mean growth rate μ” value [1, 14] was 0.279 h⁻¹ and the “mean lag time tlag” value [1, 14] was 6.2 h. For the same molecule, the “mean growth rate μ” value [1, 15] was 0.312 h⁻¹, the “mean lag time tlag” value [1, 15] was 7.1 h and the “mean growth rate μ” value [1, 16] was 0.287 h⁻¹. For the same molecule, the “mean lag time tlag” value [1, 16] was 6.6 h, the “mean growth rate μ” value [1, 17] was 0.297 h⁻¹ and the “mean lag time tlag” value [1, 17] was 6.9 h. The “mean growth rate μ” value [1, 18] was 0.438 h⁻¹, the “mean lag time tlag” value [1, 18] was 17.0 h and the “mean growth rate μ” value [1, 19] was 0.349 h⁻¹. For the same molecule, the “mean lag time tlag” value [1, 19] was 14.5 h, the “mean growth rate μ” value [1, 20] was 0.277 h⁻¹ and the “mean lag time tlag” value [1, 20] was 5.9 h. The “mean growth rate μ” value [1, 21] was 0.300 h⁻¹, the “mean lag time tlag” value [1, 21] was 6.5 h and the “mean growth rate μ” value [1, 22] was 0.341 h⁻¹. The “mean lag time tlag” value [1, 22] was 6.7 h, the “mean growth rate μ” value [1, 23] was 0.318 h⁻¹ and the “mean lag time tlag” value [1, 23] was 6.6 h. For the same molecule, the “mean growth rate μ” value [1, 24] was 0.318 h⁻¹, the “mean lag time tlag” value [1, 24] was 7.1 h and the “mean growth rate μ” value [1, 25] was 0.283 h⁻¹. The “mean lag time tlag” value [1, 25] was 7.8 h, the “mean growth rate μ” value [1, 26] was 0.322 h⁻¹ and the “mean lag time tlag” value [1, 26] was 6.2 h. The “mean growth rate μ” value [1, 27] was 0.347 h⁻¹, the “mean lag time tlag” value [1, 27] was 7.1 h and the “mean growth rate μ” value [1, 28] was 0.402 h⁻¹. For the same molecule, the “mean lag time tlag” value [1, 28] was 7.8 h, the “mean growth rate μ” value [1, 29] was 0.345 h⁻¹ and the “mean lag time tlag” value [1, 29] was 7.4 h. For the same molecule, the “mean growth rate μ” value [1, 30] was 0.103 h⁻¹, the “mean lag time tlag” value [1, 30] was 10.7 h and the “mean growth rate μ” value [1, 31] was 0.100 h⁻¹. The “mean lag time tlag” value [1, 31] was 10.4 h, the “mean growth rate μ” value [1, 32] was 0.181 h⁻¹ and the “mean lag time tlag” value [1, 32] was 5.8 h. The “mean growth rate μ” value [1, 33] was 0.085 h⁻¹, the “mean lag time tlag” value [1, 33] was 0.6 h and the “mean growth rate μ” value [1, 34] was 0.126 h⁻¹. The “mean lag time tlag” value [1, 34] was 12.8 h, the “mean growth rate μ” value [1, 35] was 0.244 h⁻¹ and the “mean lag time tlag” value [1, 35] was 6.5 h. For the same molecule, the “mean growth rate μ” value [1, 36] was 0.256 h⁻¹, the “mean lag time tlag” value [1, 36] was 5.7 h and the “mean growth rate μ” value [1, 37] was 0.213 h⁻¹. The “mean lag time tlag” value [1, 37] was 6.0 h, the “mean growth rate μ” value [1, 38] was 0.300 h⁻¹ and the “mean lag time tlag” value [1, 38] was 7.0 h. For the same molecule, the “mean growth rate μ” value [2, 39] was 0.466 h⁻¹, the “mean lag time tlag” value [2, 39] was 7.4 h and the “mean growth rate μ” value [2, 40] was 0.101 h⁻¹. The “mean lag time tlag” value [2, 40] was 21.8 h, the “mean growth rate μ” value [2, 41] was 0.487 h⁻¹ and the “mean lag time tlag” value [2, 41] was 6.1 h. The “mean growth rate μ” value [2, 42] was 0.191 h⁻¹, the “mean lag time tlag” value [2, 42] was 13.5 h and the “mean growth rate μ” value [2, 43] was 0.491 h⁻¹. For the same molecule, the “mean lag time tlag” value [2, 43] was 6.7 h, the “mean growth rate μ” value [2, 44] was 0.179 h⁻¹ and the “mean lag time tlag” value [2, 44] was 15.0 h. For the same molecule, the “mean growth rate μ” value [2, 45] was 0.520 h⁻¹, the “mean lag time tlag” value [2, 45] was 6.2 h and the “mean growth rate μ” value ([2]; strain MG1655 ΔkgtP proV::kan, M9 + 47.5 g/L glutarate (neutralized)) was 0.251 h⁻¹. The “mean growth rate μ” value [2, 46] was 0.505 h⁻¹, the “mean lag time tlag” value [2, 46] was 6.3 h and the “mean growth rate μ” value [2, 47] was 0.183 h⁻¹. For the same molecule, the “mean lag time tlag” value [2, 47] was 13.6 h, the “mean growth rate μ” value [2, 48] was 0.473 h⁻¹ and the “mean lag time tlag” value [2, 48] was 6.1 h. For the same molecule, the “mean lag time tlag” value ([2]; strain MG1655 ΔkgtP sspA::kan, M9 + 47.5 g/L glutarate (neutralized)) was 12.2 h, the “mean growth rate μ” value [2, 49] was 0.541 h⁻¹ and the “mean lag time tlag” value [2, 49] was 6.6 h. The “mean growth rate μ” value [2, 50] was 0.215 h⁻¹ and the “mean lag time tlag” value [2, 50] was 14.0 h.
